From ChEMBL document CHEMBL1201862, “PubChem BioAssay data set” (2004)
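Cultured in 96-well plates, cells were exposed to test compound for 48 hours across five concentrations. Abbreviation: GI50, concentration required for 50% inhibition of growth.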 Active and inactive are the calls of the source. No stated cut-off is given here; in the data, active = GI50 up to about 1.1 µM and inactive = higher.

What was measured:
Test in all cases: NCI tumour cell line growth inhibition, 48 h
[1] = test system: NCI-H23
[2] = test system: KM12
[3] = test system: T47D
[4] = test system: A549
[5] = test system: SK-OV-3
[6] = test system: SN12C
[7] = test system: UACC-257
[8] = test system: NCI-H460
[9] = test system: UACC-62
[10] = test system: SK-MEL-2
[11] = test system: HCC 2998
[12] = test system: CCRF-CEM
[13] = test system: ACHN
[14] = test system: OVCAR-3
[15] = test system: MDA-MB-435
[16] = test system: COLO 205
[17] = test system: MDA-N
[18] = test system: TK-10
[19] = test system: SK-MEL-28

Row | SMILES | GI50 [1] | GI50 [2] | GI50 [3] | GI50 [4] | GI50 [5] | GI50 [6] | GI50 [7] | GI50 [8] | GI50 [9] | GI50 [10] | GI50 [11] | GI50 [12] | GI50 [13] | GI50 [14] | GI50 [15] | GI50 [16] | GI50 [17] | GI50 [18] | GI50 [19]
1 | CCc1n[nH]c(=O)n1/N=C/c1ccc(C)cc1 | > 100 µM (inactive) | 69.3 µM (inactive) | > 100 µM (inactive) | > 100 µM (inactive) | > 100 µM (inactive) | > 100 µM (inactive) | 97.7 µM (inactive) | > 100 µM (inactive) | 60.7 µM (inactive) | > 100 µM (inactive) | > 100 µM (inactive) | > 100 µM (inactive) | > 100 µM (inactive) | 69.5 µM (inactive) | > 100 µM (inactive) | > 100 µM (inactive) | > 100 µM (inactive) | 60.3 µM (inactive) | > 100 µM (inactive)
2 | CC(=O)OC(C)(C)/C=C/C(=O)[C@](C)(O)[C@H]1[C@H](O)C[C@@]2(C)[C@@H]3CC=C4[C@@H](C[C@H](O)C(=O)C4(C)C)[C@]3(C)C(=O)C[C@]12C | 0.0873 µM (active) | 1.4 µM (inactive) | 0.0362 µM (active) | < 0.01 µM (active) | < 0.01 µM (active) | < 0.0143 µM (active) | < 0.01 µM (active) | < 0.01 µM (active) | < 0.01 µM (active) | < 0.01 µM (active) | < 0.01 µM (active) | < 0.01 µM (active) | < 0.01 µM (active) | < 0.01 µM (active) | < 0.01 µM (active) | < 0.01 µM (active) | < 0.01 µM (active) | < 0.01 µM (active) | < 0.01 µM (active)
3 | COc1ccc(C[C@@H]2OC3(C=CC(=O)C=C3)O[C@H]2Cc2ccc(OC)cc2)cc1 | 1.37 µM (inactive) | 1.91 µM (inactive) | 0.291 µM (active) | 3.1 µM (inactive) | 6.15 µM (inactive) | 1.05 µM (active) | 1.46 µM (inactive) | 7.14 µM (inactive) | 1.72 µM (inactive) | 1.38 µM (inactive) | 1.52 µM (inactive) | 0.14 µM (active) | 0.405 µM (active) | 0.673 µM (active) | 1.53 µM (inactive) | 1.43 µM (inactive) | 0.476 µM (active) | 0.281 µM (active) | 1.71 µM (inactive)
4 | CC1(C)COC(c2ccccc2-c2ccccc2)=N1 | 88.5 µM (inactive) | > 100 µM (inactive) | 83.2 µM (inactive) | 59.2 µM (inactive) | > 100 µM (inactive) | > 100 µM (inactive) | 66.1 µM (inactive) | > 100 µM (inactive) | 54.6 µM (inactive) | > 100 µM (inactive) | > 100 µM (inactive) | > 100 µM (inactive) | > 100 µM (inactive) | > 100 µM (inactive) | > 100 µM (inactive) | > 100 µM (inactive) | > 100 µM (inactive) |  | > 100 µM (inactive)
5 | CCN(C(=O)N[C@H](C(=O)N[C@@H](CSC)C(=O)N[C@@H](C)C(=O)OC)C(C)C)c1ccccc1 | 17.8 µM (inactive) | 15.3 µM (inactive) | 26.4 µM (inactive) | 23.6 µM (inactive) | 15 µM (inactive) | 17.9 µM (inactive) | 12.4 µM (inactive) | 15.8 µM (inactive) | 13.8 µM (inactive) | 20.3 µM (inactive) | 19.6 µM (inactive) | 2.94 µM (inactive) | 15.6 µM (inactive) | 20 µM (inactive) | 14.7 µM (inactive) | 17.9 µM (inactive) | 17.3 µM (inactive) | 13.6 µM (inactive) | 15.3 µM (inactive)
6 | c1ccc(-c2cc(-c3ccncc3)cc(-c3ccncc3)n2)cc1 | > 100 µM (inactive) | > 100 µM (inactive) | > 100 µM (inactive) | > 100 µM (inactive) | 80.7 µM (inactive) | > 100 µM (inactive) | > 100 µM (inactive) |  | > 100 µM (inactive) | > 100 µM (inactive) | > 100 µM (inactive) | > 100 µM (inactive) | > 100 µM (inactive) | > 100 µM (inactive) | > 100 µM (inactive) | > 100 µM (inactive) | > 100 µM (inactive) | > 100 µM (inactive) | > 100 µM (inactive)
7 | O=c1c2c3c(sc2nc2n1N=CN(c1ccccc1)C2)CCCC3 | > 100 µM (inactive) | > 100 µM (inactive) | > 100 µM (inactive) | > 100 µM (inactive) | > 100 µM (inactive) | > 100 µM (inactive) | > 100 µM (inactive) | > 100 µM (inactive) | > 100 µM (inactive) | > 100 µM (inactive) | > 100 µM (inactive) | > 100 µM (inactive) | > 100 µM (inactive) | > 100 µM (inactive) | > 100 µM (inactive) | > 100 µM (inactive) | > 100 µM (inactive) | > 100 µM (inactive) | > 100 µM (inactive)
8 | O=[N+]([O-])c1ccc(/C=N/CC2CCCN3CCCCC23)cc1 (centres undefined) | > 100 µM (inactive) | 33.2 µM (inactive) | > 100 µM (inactive) | 36.2 µM (inactive) | > 100 µM (inactive) | > 100 µM (inactive) | > 100 µM (inactive) | > 100 µM (inactive) | > 100 µM (inactive) | > 100 µM (inactive) | 28.6 µM (inactive) | 40.8 µM (inactive) | > 100 µM (inactive) |  | 61.7 µM (inactive) | 50.9 µM (inactive) | 34.9 µM (inactive) | > 100 µM (inactive) | > 100 µM (inactive)
9 | CC1(C)[C@@H](Cn2ccc(=O)[nH]c2=O)CC[C@@]1(C)CO |  | > 100 µM (inactive) | > 100 µM (inactive) | > 100 µM (inactive) | > 100 µM (inactive) | > 100 µM (inactive) | > 100 µM (inactive) |  | > 100 µM (inactive) | > 100 µM (inactive) | > 100 µM (inactive) | > 100 µM (inactive) | > 100 µM (inactive) | 81.5 µM (inactive) | > 100 µM (inactive) | > 100 µM (inactive) | > 100 µM (inactive) | > 100 µM (inactive) | > 100 µM (inactive)
10 | N/C(=N\n1c(=S)[nH]c2ccccc2c1=O)Nn1c(=S)[nH]c2ccccc2c1=O | 23.1 µM (inactive) | 96.8 µM (inactive) | 23.4 µM (inactive) | > 100 µM (inactive) | > 100 µM (inactive) |  | > 100 µM (inactive) | 44.1 µM (inactive) | 75 µM (inactive) | 46.6 µM (inactive) | > 100 µM (inactive) | 18.8 µM (inactive) | 46.7 µM (inactive) | > 100 µM (inactive) | 36.9 µM (inactive) | 28.8 µM (inactive) | 24.7 µM (inactive) | > 100 µM (inactive) | 28.2 µM (inactive)
11 | O=c1[nH][nH]c(=O)n1CCCCCCn1c(=O)[nH][nH]c1=O | > 100 µM (inactive) | > 100 µM (inactive) | > 100 µM (inactive) | > 100 µM (inactive) | > 100 µM (inactive) | > 100 µM (inactive) | > 100 µM (inactive) | > 100 µM (inactive) | > 100 µM (inactive) | > 100 µM (inactive) | > 100 µM (inactive) | > 100 µM (inactive) |  | > 100 µM (inactive) | > 100 µM (inactive) | > 100 µM (inactive) | > 100 µM (inactive) | > 100 µM (inactive) | > 100 µM (inactive)
12 | CC(=O)Nc1ccccc1C=C1c2ccccc2-c2ccccc21 | 25.2 µM (inactive) | > 100 µM (inactive) | 30.4 µM (inactive) | 24.1 µM (inactive) |  | 19.1 µM (inactive) | 56.8 µM (inactive) | 34.7 µM (inactive) | 41.7 µM (inactive) | 34 µM (inactive) | 84.9 µM (inactive) | 48 µM (inactive) | 42.7 µM (inactive) | 25.1 µM (inactive) | > 100 µM (inactive) | 78.2 µM (inactive) | > 100 µM (inactive) | 31.3 µM (inactive) | > 100 µM (inactive)
13 | COc1ccc(/C=N/n2c(Cc3ccc(Cl)cc3)n[nH]c2=O)cc1 | 22 µM (inactive) | > 100 µM (inactive) | 54.1 µM (inactive) | 43.6 µM (inactive) | 36 µM (inactive) | 59.7 µM (inactive) | > 100 µM (inactive) | > 100 µM (inactive) | 52.2 µM (inactive) | 21.6 µM (inactive) | > 100 µM (inactive) | > 100 µM (inactive) | 45.1 µM (inactive) | > 100 µM (inactive) | > 100 µM (inactive) | 32 µM (inactive) | > 100 µM (inactive) |  | > 100 µM (inactive)
14 | COC(=O)/C=C/[C@@H]1[C@H](C)N1S(=O)(=O)c1ccc(C)cc1 (some centres undefined) | > 100 µM (inactive) |  | > 100 µM (inactive) | > 100 µM (inactive) | > 100 µM (inactive) | > 100 µM (inactive) | > 100 µM (inactive) | > 100 µM (inactive) | > 100 µM (inactive) | 29.7 µM (inactive) | > 100 µM (inactive) | > 100 µM (inactive) | > 100 µM (inactive) | > 100 µM (inactive) | > 100 µM (inactive) | > 100 µM (inactive) | > 100 µM (inactive) | > 100 µM (inactive) | > 100 µM (inactive)
15 | O=C1Oc2ccccc2C(=O)/C1=C/N1C(=O)/C(=C/c2ccc([N+](=O)[O-])cc2)SC1=S | 14 µM (inactive) | 19 µM (inactive) | 5.98 µM (inactive) | 26.7 µM (inactive) | 31.5 µM (inactive) | 20.4 µM (inactive) | 25.8 µM (inactive) | 18.5 µM (inactive) | 17.9 µM (inactive) | 24 µM (inactive) | 19.1 µM (inactive) | 34 µM (inactive) | 15.6 µM (inactive) | 2.71 µM (inactive) | 16.4 µM (inactive) | 20.5 µM (inactive) | 17.2 µM (inactive) |  | 22.7 µM (inactive)
